Assay results from ChEMBL document CHEMBL1201862, “PubChem BioAssay data set” (2004).
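A five-concentration, 48-hour dose response in 96-well plates underlies each endpoint, interpolated linearly between surrounding concentrations. Here, GI50 denotes the concentration required for 50% inhibition of growth.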 Calls of active or inactive are those of the source. Cut-off read from the data, not from the text of the source: active = GI50 up to about 1.1 µM and inactive = higher.

Columns and labels:
Experiment in all cases: DTP human tumour cell line panel, 48 h
[1] = test system: M14
[2] = test system: NCI-H226
[3] = test system: A498
[4] = test system: HCT-116
[5] = test system: UACC-257
[6] = test system: SF-539
[7] = test system: OVCAR-3
[8] = test system: Malme-3M
[9] = test system: HCT-15
[10] = test system: MDA-MB-435
[11] = test system: Hs-578T
[12] = test system: OVCAR-5
[13] = test system: K562
[14] = test system: MDA-MB-231
[15] = test system: IGROV-1
[16] = test system: HCC 2998
[17] = test system: TK-10
[18] = test system: CCRF-CEM
[19] = test system: MOLT-4
[20] = test system: SN12C
[21] = test system: KM12
[22] = test system: MCF7
[23] = test system: MDA-N
[24] = test system: UACC-62
[25] = test system: NCI/ADR-RES
[26] = test system: OVCAR-8
[27] = test system: ACHN
[28] = test system: NCI-H522
[29] = test system: U-251
[30] = test system: A549
[31] = test system: LOX IMVI
[32] = test system: RPMI-8226
[33] = test system: SK-OV-3
[34] = test system: 786-0
[35] = test system: SK-MEL-5
[36] = test system: NCI-H23
[37] = test system: PC-3
[38] = test system: HL-60
[39] = test system: HT-29
[40] = test system: SK-MEL-2
[41] = test system: HOP-92
[42] = test system: SR
[43] = test system: SF-295
[44] = test system: RXF 393
[45] = test system: T47D
[46] = test system: OVCAR-4
[47] = test system: COLO 205
[48] = test system: UO-31
[49] = test system: EKVX
[50] = test system: HOP-62
[51] = test system: SF-268
[52] = test system: DU-145
[53] = test system: CAKI-1
[54] = test system: SK-MEL-28
[55] = test system: SNB-75
[56] = test system: SW-620

Measured: GI50

CCc1c2c(cc3c1CC1(C3)Cc3cc4c(c(C(=O)OC)c3C1)CCCC4)CCCC2 (centres undefined)
> 100 µM: [9]
inactive: [1] > 100 µM | [2] > 100 µM | [3] > 100 µM | [4] 20 µM | [5] > 100 µM | [6] > 100 µM | [7] > 100 µM | [8] > 100 µM | [10] > 100 µM | [11] 19.2 µM | [12] > 100 µM | [13] > 100 µM | [14] > 100 µM | [15] > 100 µM | [16] > 100 µM | [17] > 100 µM | [18] 51.3 µM | [19] 34.5 µM | [20] > 100 µM | [21] > 100 µM | [22] > 100 µM | [23] > 100 µM | [24] 18.5 µM | [25] > 100 µM | [26] > 100 µM | [27] > 100 µM | [28] > 100 µM | [29] > 100 µM | [30] 29.7 µM | [31] > 100 µM | [32] > 100 µM | [33] > 100 µM | [34] 12.1 µM | [35] > 100 µM | [36] > 100 µM | [37] > 100 µM | [38] 80.9 µM | [39] > 100 µM | [40] > 100 µM | [41] > 100 µM | [42] 51.8 µM | [43] > 100 µM | [44] 59.4 µM | [45] > 100 µM | [46] > 100 µM | [47] > 100 µM | [48] > 100 µM | [49] 28.4 µM | [50] > 100 µM

N#Cc1ccc(/N=C(/NCC(=O)O)Nc2ccc3ccccc3c2)cc1
> 10 µM: [9]
inactive: [51] > 10 µM | [1] > 10 µM | [52] > 10 µM | [5] > 10 µM | [8] > 10 µM | [13] > 10 µM | [14] > 10 µM | [15] > 10 µM | [16] > 10 µM | [17] > 10 µM | [18] > 10 µM | [19] > 10 µM | [20] > 10 µM | [21] > 10 µM | [22] > 10 µM | [23] > 10 µM | [24] > 10 µM | [26] > 10 µM | [30] > 10 µM | [32] > 10 µM | [53] > 10 µM | [33] > 10 µM | [34] > 10 µM | [35] > 10 µM | [36] > 10 µM | [37] > 10 µM | [38] > 10 µM | [39] > 10 µM | [54] > 10 µM | [55] > 10 µM | [42] > 10 µM | [43] > 10 µM | [44] > 10 µM | [56] > 10 µM | [45] > 10 µM | [47] > 10 µM | [49] > 10 µM | [50] > 10 µM
